In ChEMBL document CHEMBL3400130, “Identification of apoptosis signal-regulating kinase 1 (ASK1) inhibitors among the derivatives of benzothiazol-2-yl-3-hydroxy-5-phenyl-1,5-dihydro-pyrrol-2-one” (Bioorg Med Chem, 2015):

Legend:
[1] = target: T1, Mitogen-activated protein kinase kinase kinase 5 (Homo sapiens, UniProt Q99683); test: Inhibition of recombinant ASK1 catalytic subunit (unknown origin) using MBP substrate and gamma-labeled 32P ATP incubated for 20 mins by liquid scintillation counting method
T1 sequence (Q99683 whole entry): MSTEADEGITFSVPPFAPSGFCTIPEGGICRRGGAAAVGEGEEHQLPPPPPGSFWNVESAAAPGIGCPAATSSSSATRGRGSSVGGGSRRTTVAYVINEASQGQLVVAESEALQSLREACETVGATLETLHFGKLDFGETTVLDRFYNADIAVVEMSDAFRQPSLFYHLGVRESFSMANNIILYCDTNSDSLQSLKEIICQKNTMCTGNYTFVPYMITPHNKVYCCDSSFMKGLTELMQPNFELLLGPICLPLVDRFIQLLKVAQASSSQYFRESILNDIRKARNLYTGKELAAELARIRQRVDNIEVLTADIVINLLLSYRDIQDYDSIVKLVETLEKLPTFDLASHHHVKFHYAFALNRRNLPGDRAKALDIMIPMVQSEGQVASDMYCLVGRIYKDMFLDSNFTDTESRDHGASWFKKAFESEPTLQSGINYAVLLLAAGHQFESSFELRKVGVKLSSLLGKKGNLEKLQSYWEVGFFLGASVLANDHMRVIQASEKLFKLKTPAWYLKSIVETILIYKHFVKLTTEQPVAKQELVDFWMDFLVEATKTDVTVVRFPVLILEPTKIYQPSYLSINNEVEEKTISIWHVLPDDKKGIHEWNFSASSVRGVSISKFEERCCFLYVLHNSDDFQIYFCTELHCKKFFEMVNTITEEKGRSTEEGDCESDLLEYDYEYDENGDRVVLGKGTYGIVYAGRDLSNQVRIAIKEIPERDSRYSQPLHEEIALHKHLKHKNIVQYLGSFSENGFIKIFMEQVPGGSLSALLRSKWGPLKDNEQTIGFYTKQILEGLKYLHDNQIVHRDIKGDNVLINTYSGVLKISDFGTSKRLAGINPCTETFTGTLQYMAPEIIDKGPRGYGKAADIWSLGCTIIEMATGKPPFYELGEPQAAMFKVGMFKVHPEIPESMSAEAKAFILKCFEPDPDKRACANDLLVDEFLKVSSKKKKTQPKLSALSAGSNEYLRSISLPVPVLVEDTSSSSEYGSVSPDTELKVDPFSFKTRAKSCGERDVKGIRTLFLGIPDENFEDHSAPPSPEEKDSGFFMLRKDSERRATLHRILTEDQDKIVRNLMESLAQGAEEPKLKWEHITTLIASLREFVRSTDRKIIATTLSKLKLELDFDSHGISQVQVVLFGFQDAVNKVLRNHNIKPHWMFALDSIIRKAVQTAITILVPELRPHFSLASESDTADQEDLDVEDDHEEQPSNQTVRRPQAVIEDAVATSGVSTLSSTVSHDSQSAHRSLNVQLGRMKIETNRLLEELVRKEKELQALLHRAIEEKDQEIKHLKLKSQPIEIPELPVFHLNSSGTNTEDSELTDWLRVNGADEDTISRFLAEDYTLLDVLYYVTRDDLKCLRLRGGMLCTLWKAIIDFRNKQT

[2] = target: T2, Mitogen-activated protein kinase kinase kinase 5 (Homo sapiens) (UniProt Q99683); test: Inhibition of recombinant ASK1 catalytic subunit (unknown origin) assessed as residual enzyme activity at 10 uM using MBP substrate and gamma-labeled 32P ATP incubated for 20 mins by liquid scintillation counting method
T2 sequence (whole entry): T1 sequence (Q99683 whole entry)

[3] = target: Angiopoietin-1 receptor (Homo sapiens) (UniProt Q02763); test: Inhibition of Tie2 (unknown origin) assessed as residual enzyme activity at 10 uM using TK Substrate 2 (poly Glu-Tyr) substrate
[4] = target: Casein kinase II (Homo sapiens) (UniProt P67870+P68400+P19784); test: Inhibition of CK2 (unknown origin) assessed as residual enzyme activity at 10 uM using RRRDDDSDDD substrate peptide; format: protein-complex assay
[5] = target: Fibroblast growth factor receptor 1 (Homo sapiens) (UniProt P11362); test: Inhibition of FGFR1 (unknown origin) assessed as residual enzyme activity at 10 uM using IGF-IRtide (12 to 527) substrate
[6] = target: T3, Aurora kinase A (Homo sapiens) (UniProt O14965); test: Inhibition of Aurora A (unknown origin) assessed as residual enzyme activity at 10 uM using kemptide substrate
T3 sequence (whole entry): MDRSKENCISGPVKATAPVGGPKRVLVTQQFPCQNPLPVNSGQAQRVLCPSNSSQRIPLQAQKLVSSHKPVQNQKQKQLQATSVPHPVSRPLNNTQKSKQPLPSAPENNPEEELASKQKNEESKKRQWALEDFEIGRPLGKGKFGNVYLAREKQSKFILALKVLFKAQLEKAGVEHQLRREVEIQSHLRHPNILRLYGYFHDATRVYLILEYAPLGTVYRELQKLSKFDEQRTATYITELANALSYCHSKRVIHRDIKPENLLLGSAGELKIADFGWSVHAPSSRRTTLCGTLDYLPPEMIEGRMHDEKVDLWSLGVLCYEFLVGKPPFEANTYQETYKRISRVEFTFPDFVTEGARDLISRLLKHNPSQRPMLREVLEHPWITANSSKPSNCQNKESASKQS

[7] = target: Mitogen-activated protein kinase 10 (Homo sapiens) (UniProt P53779); test: Inhibition of JNK3 (unknown origin) assessed as residual enzyme activity at 10 uM using JNK3tide substrate
Sequence of Mitogen-activated protein kinase 10 (Homo sapiens) (P53779 whole entry): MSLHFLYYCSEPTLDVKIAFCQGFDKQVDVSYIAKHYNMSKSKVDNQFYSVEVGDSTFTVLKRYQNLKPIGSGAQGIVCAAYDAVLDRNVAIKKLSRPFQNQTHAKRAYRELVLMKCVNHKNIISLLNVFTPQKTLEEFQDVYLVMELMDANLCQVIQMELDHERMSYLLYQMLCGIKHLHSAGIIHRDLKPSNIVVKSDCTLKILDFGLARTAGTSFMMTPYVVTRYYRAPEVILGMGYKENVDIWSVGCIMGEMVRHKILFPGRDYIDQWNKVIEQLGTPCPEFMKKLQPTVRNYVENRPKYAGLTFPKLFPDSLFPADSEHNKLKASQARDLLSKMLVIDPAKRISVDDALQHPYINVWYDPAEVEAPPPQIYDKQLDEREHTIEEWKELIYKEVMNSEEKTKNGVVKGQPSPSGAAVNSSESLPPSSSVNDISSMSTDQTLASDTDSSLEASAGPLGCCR

Sequence of Fibroblast growth factor receptor 1 (Homo sapiens) (P11362 22-822 limits assumed): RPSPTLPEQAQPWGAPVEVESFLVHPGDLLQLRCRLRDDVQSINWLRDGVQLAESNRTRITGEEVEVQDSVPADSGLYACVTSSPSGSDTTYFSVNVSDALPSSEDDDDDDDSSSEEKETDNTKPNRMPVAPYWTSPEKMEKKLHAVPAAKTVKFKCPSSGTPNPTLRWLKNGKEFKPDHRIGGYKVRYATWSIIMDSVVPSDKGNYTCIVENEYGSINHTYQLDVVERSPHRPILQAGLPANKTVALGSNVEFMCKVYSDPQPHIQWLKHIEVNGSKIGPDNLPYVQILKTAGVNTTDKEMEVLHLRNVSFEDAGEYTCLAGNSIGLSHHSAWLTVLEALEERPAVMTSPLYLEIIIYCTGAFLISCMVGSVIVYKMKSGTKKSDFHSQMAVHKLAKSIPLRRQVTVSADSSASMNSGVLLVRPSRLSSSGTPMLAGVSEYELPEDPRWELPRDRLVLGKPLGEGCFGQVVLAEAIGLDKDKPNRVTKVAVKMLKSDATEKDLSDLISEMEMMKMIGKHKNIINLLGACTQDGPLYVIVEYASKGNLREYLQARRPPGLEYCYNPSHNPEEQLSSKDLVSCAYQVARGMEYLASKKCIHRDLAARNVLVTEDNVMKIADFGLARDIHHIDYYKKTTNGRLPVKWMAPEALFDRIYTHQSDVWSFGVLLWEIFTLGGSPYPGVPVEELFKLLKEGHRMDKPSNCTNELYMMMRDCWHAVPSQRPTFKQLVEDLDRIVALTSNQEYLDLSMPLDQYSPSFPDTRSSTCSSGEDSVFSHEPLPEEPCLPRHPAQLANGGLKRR
Sequence of Angiopoietin-1 receptor (Homo sapiens) (Q02763 whole entry): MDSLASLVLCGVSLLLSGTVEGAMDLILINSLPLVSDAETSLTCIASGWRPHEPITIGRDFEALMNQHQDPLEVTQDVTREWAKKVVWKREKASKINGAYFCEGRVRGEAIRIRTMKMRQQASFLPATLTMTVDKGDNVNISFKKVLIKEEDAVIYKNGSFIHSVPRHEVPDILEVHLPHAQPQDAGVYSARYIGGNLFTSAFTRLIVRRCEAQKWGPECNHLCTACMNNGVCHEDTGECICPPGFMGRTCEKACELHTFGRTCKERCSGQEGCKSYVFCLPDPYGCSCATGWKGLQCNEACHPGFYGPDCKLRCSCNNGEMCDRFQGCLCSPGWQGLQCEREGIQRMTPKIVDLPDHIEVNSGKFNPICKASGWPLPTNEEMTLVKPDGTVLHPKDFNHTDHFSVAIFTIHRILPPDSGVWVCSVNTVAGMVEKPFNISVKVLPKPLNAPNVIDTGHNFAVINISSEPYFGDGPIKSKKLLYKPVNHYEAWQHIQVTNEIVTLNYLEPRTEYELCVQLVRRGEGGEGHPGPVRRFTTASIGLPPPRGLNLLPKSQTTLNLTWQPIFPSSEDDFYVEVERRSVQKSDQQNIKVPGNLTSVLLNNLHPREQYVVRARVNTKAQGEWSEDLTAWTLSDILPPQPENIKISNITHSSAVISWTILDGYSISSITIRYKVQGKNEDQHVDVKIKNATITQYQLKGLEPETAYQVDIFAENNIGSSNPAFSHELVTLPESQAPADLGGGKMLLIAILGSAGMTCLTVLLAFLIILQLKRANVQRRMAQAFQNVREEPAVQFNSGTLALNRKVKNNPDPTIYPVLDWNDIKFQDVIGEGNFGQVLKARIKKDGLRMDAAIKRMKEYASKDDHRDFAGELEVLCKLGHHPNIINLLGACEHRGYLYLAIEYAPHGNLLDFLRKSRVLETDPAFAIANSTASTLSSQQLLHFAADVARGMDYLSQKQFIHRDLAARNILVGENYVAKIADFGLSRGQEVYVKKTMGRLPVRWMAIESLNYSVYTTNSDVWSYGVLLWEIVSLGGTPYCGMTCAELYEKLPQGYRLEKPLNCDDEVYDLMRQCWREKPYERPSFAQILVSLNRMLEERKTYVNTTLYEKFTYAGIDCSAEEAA

Structure (SMILES) | IC50 [1] [µM] | Activity [2] [%] | Activity [3] [%] | Activity [4] [%] | Activity [5] [%] | Activity [6] [%] | Activity [7] [%]
Cc1ccc(C(=O)C2=C(O)C(=O)N(c3nc4ccc(C)cc4s3)C2c2ccc(C(C)(C)C)cc2)cc1 (stereo not drawn) | 4.4 |  |  |  |  |  | 
CC(C)(C)c1ccc(C2C(C(=O)c3ccc4c(c3)OCCO4)=C(O)C(=O)N2c2nc3ccc(Cl)cc3s2)cc1 (stereo not drawn) | 2.5 | 12.3 | 92.5 | 83.6 | 46.8 | 52.9 | 100
O=C(C1=C(O)C(=O)N(c2nc3ccc(F)cc3s2)C1c1ccc(Br)cc1)c1ccco1 (stereo not drawn) | 28.2 |  |  |  |  |  | 
Cc1cc(C)c2nc(N3C(=O)C(O)=C(C(=O)c4ccc(Cl)cc4)C3c3ccc(C(C)C)cc3)sc2c1 (stereo not drawn) | 6.3 |  |  |  |  |  | 
CCOc1ccc2nc(N3C(=O)C(O)=C(C(=O)c4ccc(C)cc4)C3c3ccc(C(C)(C)C)cc3)sc2c1 (stereo not drawn) | 2 | 23.5 | 100 | 97.8 | 40.3 | 52 | 100
CCCCCOc1ccc(C2C(C(=O)c3ccc4c(c3)OCCO4)=C(O)C(=O)N2c2nc3ccc(C)cc3s2)cc1 (stereo not drawn) | 5.2 | 13.2 | 59.9 | 90 | 25.5 | 28.1 | 92.5
CCCCCOc1ccc(C2C(C(=O)c3ccc4c(c3)CC(C)O4)=C(O)C(=O)N2c2nc3ccc(F)cc3s2)cc1 (stereo not drawn) | 0.75 | 18.1 | 68.4 | 92.6 | 26.9 | 28.4 | 100
Cc1ccc2nc(N3C(=O)C(O)=C(C(=O)c4ccco4)C3c3ccc(Cl)cc3)sc2c1 (stereo not drawn) | 30.2 |  |  |  |  |  | 
COc1ccc2nc(N3C(=O)C(O)=C(C(=O)c4ccco4)C3c3ccc(Cl)cc3)sc2c1 (stereo not drawn) | 4.2 | 39.1 | 66.4 | 73.9 | 46.4 | 48.1 | 96.8
O=C(C1=C(O)C(=O)N(c2nc3ccc(F)cc3s2)C1c1cccc(Cl)c1)c1cccs1 (stereo not drawn) | 4.5 | 27.6 | 63.5 | 71.5 | 74.4 | 28.1 | 89.9
CCOc1ccc2nc(N3C(=O)C(O)=C(C(=O)c4ccccc4)C3c3ccc(C(C)(C)C)cc3)sc2c1 (stereo not drawn) | 5 |  |  |  |  |  | 
Cc1cc(C)c2nc(N3C(=O)C(O)=C(C(=O)c4ccc(C)o4)C3c3ccc(C(C)C)cc3)sc2c1 (stereo not drawn) | 2 |  |  |  |  |  | 
CCOc1ccc2nc(N3C(=O)C(O)=C(C(=O)c4ccccc4)C3c3ccc(Cl)cc3)sc2c1 (stereo not drawn) | 4.2 | 16.2 | 62.8 | 79.3 | 65.7 | 36.5 | 100
Cc1ccc2nc(N3C(=O)C(O)=C(C(=O)c4ccco4)C3c3cccc(Br)c3)sc2c1 (stereo not drawn) | 31 |  |  |  |  |  | 
CCCCOc1ccc(C2C(C(=O)c3ccc4c(c3)OCCO4)=C(O)C(=O)N2c2nc3ccc(Cl)cc3s2)cc1OCC (stereo not drawn) | 3.6 | 19.7 | 78.8 | 89.7 | 18 | 28.8 | 100
Cc1ccc(C(=O)C2=C(O)C(=O)N(c3nc4ccc(F)cc4s3)C2c2ccc(C(C)(C)C)cc2)cc1 (stereo not drawn) | 7.6 |  |  |  |  |  | 
CCOc1ccc2nc(N3C(=O)C(O)=C(C(=O)c4cccs4)C3c3ccc(C)cc3)sc2c1 (stereo not drawn) | 4.4 | 27 | 83.2 | 79.9 | 88.7 | 45.4 | 100

Structure (SMILES) | IC50 [1] [µM] | Activity [2] [%] | Activity [3] [%] | Activity [4] [%] | Activity [5] [%] | Activity [6] [%] | Activity [7] [%]
O=C(C1=C(O)C(=O)N(c2nc3ccc(F)cc3s2)C1c1cccc(F)c1)c1ccco1 (stereo not drawn) | 42.6 |  |  |  |  |  | 
O=C(C1=C(O)C(=O)N(c2nc3ccc(F)cc3s2)C1c1cccc(Br)c1)c1ccco1 (stereo not drawn) | 29.5 |  |  |  |  |  | 
CCCCOc1ccc(C2C(C(=O)c3ccc4c(c3)OCCO4)=C(O)C(=O)N2c2nc3ccc(C)cc3s2)cc1 (stereo not drawn) | 4.6 | 19.8 | 94.2 | 85.6 | 58.1 | 20.5 | 100
Cc1ccc2nc(N3C(=O)C(O)=C(C(=O)c4ccc(F)cc4)C3c3ccc(Cl)cc3)sc2c1 (stereo not drawn) | 2.9 |  |  |  |  |  | 
CCOc1ccc(C2C(C(=O)c3cccs3)=C(O)C(=O)N2c2nc3ccc(C)cc3s2)cc1 (stereo not drawn) | 9.1 |  |  |  |  |  | 
CCCCOc1ccc(C2C(C(=O)c3ccc4c(c3)OCCO4)=C(O)C(=O)N2c2nc3ccc(Cl)cc3s2)cc1 (stereo not drawn) | 5.2 | 15.8 | 100 | 99.3 | 36.2 | 35.2 | 100
CC(C)CCOc1cccc(C2C(C(=O)c3ccc4c(c3)CC(C)O4)=C(O)C(=O)N2c2nc3ccc(F)cc3s2)c1 (stereo not drawn) | 0.52 | 14 | 100 | 83.4 | 100 | 44.7 | 100
CCCOc1ccc(C2C(C(=O)c3ccc4c(c3)OCCO4)=C(O)C(=O)N2c2nc3ccc(C)cc3s2)cc1 (stereo not drawn) | 2 | 43 | 99.2 | 81.8 | 22.6 | 49.5 | 80
Cc1ccc(C(=O)C2=C(O)C(=O)N(c3nc4ccc(F)cc4s3)C2c2ccc(C(C)(C)C)cc2)o1 (stereo not drawn) | 1.55 | 32.6 | 100 | 68.3 | 92.7 | 100 | 100
COc1ccc(C2C(C(=O)c3ccc(C)o3)=C(O)C(=O)N2c2nc3ccc(C)cc3s2)cc1OC (stereo not drawn) | 38 |  |  |  |  |  | 
O=C(C1=C(O)C(=O)N(c2nc3ccc(F)cc3s2)C1c1cccc(Cl)c1)c1ccco1 (stereo not drawn) | 28.2 |  |  |  |  |  | 
CCCOc1ccc(C2C(C(=O)c3ccc4c(c3)OCCO4)=C(O)C(=O)N2c2nc3ccc(Cl)cc3s2)cc1 (stereo not drawn) | 5 |  |  |  |  |  | 
Cc1ccc2nc(N3C(=O)C(O)=C(C(=O)c4ccco4)C3c3ccc(Br)cc3)sc2c1 (stereo not drawn) | 28.2 |  |  |  |  |  | 
COc1ccccc1C1C(C(=O)c2ccc(C)o2)=C(O)C(=O)N1c1nc2c(C)cc(C)cc2s1 (stereo not drawn) | 35.5 |  |  |  |  |  | 
COc1ccc(C(=O)C2=C(O)C(=O)N(c3nc4ccc(F)cc4s3)C2c2cccc(F)c2)cc1 (stereo not drawn) | 17 |  |  |  |  |  | 
CCOc1ccc(C(=O)C2=C(O)C(=O)N(c3nc4ccc(C)cc4s3)C2c2ccc(F)cc2)cc1 (stereo not drawn) | 5.5 |  |  |  |  |  | 
Cc1cc(C)c2nc(N3C(=O)C(O)=C(C(=O)c4ccco4)C3c3ccccc3)sc2c1 (stereo not drawn) | 63 |  |  |  |  |  | 
